Measurements taken from ChEMBL document CHEMBL4732086, “Targeting nuclear protein TDP-43 by cell division cycle kinase 7 inhibitors: A new therapeutic approach for amyotrophic lateral sclerosis” (Eur J Med Chem, 2021).
The source made the active and inactive calls. The calls are words filed in the database; no cut-off is given here.

Legend:
[1] = target: CDC7/DBF4 (Cell division cycle 7-related protein kinase/Activator of S phase kinase) (Homo sapiens) (UniProt Q9UBU7+O00311); experiment: Inhibition of recombinant human GST tagged CDC7/Dbf4 expressed in baculovirus expression system at 10 uM by Z'-LYTE assay
[2] = target: CDC7/DBF4 (Cell division cycle 7-related protein kinase/Activator of S phase kinase) (Homo sapiens, UniProt O00311); experiment: Inhibition of recombinant human CDC7/Dbf4 expressed in baculovirus infected Sf9 insect cells assessed as inhibition of fluorescein labelled substrate phosphorylation in presence of ATP measured after 60 mins by TR-FRET assay
[3] = target: Glycogen synthase kinase-3 beta (Homo sapiens) (UniProt P49841); experiment: Inhibition of recombinant human full length His-tagged GSK3B expressed in baculovirus expression system using serine/threonine-09 peptide as substrate at 10 uM incubated for 60 mins in presence of ATP by Z'-LYTE assay
[4] = target: T1, Interleukin-1 receptor-associated kinase 4 (Homo sapiens) (UniProt Q9NWZ3); experiment: Inhibition of recombinant human full length His-tagged IRAK4 expressed in baculovirus expression system using serine/threonine-07 peptide as substrate at 10 uM incubated for 60 mins in presence of ATP by Z'-LYTE assay
T1 sequence (whole entry): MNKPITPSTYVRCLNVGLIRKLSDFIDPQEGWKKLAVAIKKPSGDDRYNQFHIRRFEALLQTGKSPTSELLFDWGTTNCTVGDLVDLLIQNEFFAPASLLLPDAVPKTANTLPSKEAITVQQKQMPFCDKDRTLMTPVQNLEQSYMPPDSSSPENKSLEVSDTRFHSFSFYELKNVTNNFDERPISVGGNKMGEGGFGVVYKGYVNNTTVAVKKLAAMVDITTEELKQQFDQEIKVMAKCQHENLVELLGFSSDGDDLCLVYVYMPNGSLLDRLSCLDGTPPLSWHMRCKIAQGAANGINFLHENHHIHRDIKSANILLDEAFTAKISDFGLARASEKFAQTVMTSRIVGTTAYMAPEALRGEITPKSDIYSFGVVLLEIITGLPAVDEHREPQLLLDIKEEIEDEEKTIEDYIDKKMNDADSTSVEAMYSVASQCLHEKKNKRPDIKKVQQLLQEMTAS

[5] = target: Tyrosine-protein kinase Lck (Homo sapiens) (UniProt P06239); experiment: Inhibition of recombinant human His-tagged LCK expressed in baculovirus expression system using Tyr-02 peptide as substrate at 10 uM incubated for 60 mins in presence of ATP by Z'-LYTE assay
[6] = target: Mitogen-activated protein kinase 3 (Homo sapiens) (UniProt P27361); experiment: Inhibition of recombinant human full length GST-tagged MAPK3 expressed in Escherichia coli expression system using serine/threonine-03 peptide as substrate at 10 uM by Z'-LYTE assay; settings: time 60.0 min
[7] = target: Serine/threonine-protein kinase MARK2 (Homo sapiens) (UniProt Q7KZI7); experiment: Inhibition of recombinant human full length GST-tagged MARK2 expressed in baculovirus expression system using serine/threonine-21 peptide as substrate at 10 uM by Z'-LYTE assay; settings: time 60.0 min
[8] = system: Caenorhabditis elegans; experiment: Inhibition of CDC7 in transgenic Caenorhabditis elegans CK423 Bus-8(e2698) expressing human TDP-43 assessed as inhibition of TDP-43 phosphorylation at 75 uM measured after 6 days by Western blot assay; settings: time 6.0 day
[9] = system: SH-SY5Y; experiment: Neuroprotective activity in human SH-SY5Y cells assessed as decrease in cytoplasmic TDP-43 preincubated for 1 hr followed by incubation with ethacrynic acid for 24 hrs measured at 10 uM by immunofluorescence assay; assay type: functional, cell-based
[10] = system: Caenorhabditis elegans; experiment: Inhibition of CDC7 in transgenic Caenorhabditis elegans CK423 Bus-8(e2698) expressing human TDP-43 assessed as inhibition of TDP-43 phosphorylation at 10 to 75 uM measured after 6 days by Western blot assay; settings: dose 10-75 µM, time 6.0 day
[11] = system: Mus musculus; experiment: Neuroprotective activity in Prp-hTDP43 (A315T) transgenic amyotrophic lateral sclerosis mouse model assessed as decrease in clasping behavioural at 5 mg/kg, ip qd measured on week 5 by rotarod test; assay type: functional, organism-based; settings: time 5.0 weeks
[12] = system: Mus musculus; experiment: Neuroprotective activity in Prp-hTDP43 (A315T) transgenic amyotrophic lateral sclerosis mouse model assessed as decrease in clasping behavioural at 5 mg/kg, ip qd measured on week 3 by rotarod test; assay type: functional, organism-based; settings: time 3.0 weeks
[13] = system: Mus musculus; experiment: Neuroprotective activity in Prp-hTDP43 (A315T) mouse assessed by decrease in TDP-43 phosphorylation in spinal cord tissue at 5 mg/kg, ip qd for 30 days by Western blot assay; assay type: functional, organism-based; settings: time 30.0 day
[14] = Toxicity in Prp-hTDP43 (A315T) mouse at 5 mg/kg, ip qd for 30 days; assay type: organism-based; settings: in vivo, 720 h, time 30 day

Sequence of CDC7/DBF4 (Cell division cycle 7-related protein kinase/Activator of S phase kinase) (Homo sapiens) (O00311 whole entry, looked up): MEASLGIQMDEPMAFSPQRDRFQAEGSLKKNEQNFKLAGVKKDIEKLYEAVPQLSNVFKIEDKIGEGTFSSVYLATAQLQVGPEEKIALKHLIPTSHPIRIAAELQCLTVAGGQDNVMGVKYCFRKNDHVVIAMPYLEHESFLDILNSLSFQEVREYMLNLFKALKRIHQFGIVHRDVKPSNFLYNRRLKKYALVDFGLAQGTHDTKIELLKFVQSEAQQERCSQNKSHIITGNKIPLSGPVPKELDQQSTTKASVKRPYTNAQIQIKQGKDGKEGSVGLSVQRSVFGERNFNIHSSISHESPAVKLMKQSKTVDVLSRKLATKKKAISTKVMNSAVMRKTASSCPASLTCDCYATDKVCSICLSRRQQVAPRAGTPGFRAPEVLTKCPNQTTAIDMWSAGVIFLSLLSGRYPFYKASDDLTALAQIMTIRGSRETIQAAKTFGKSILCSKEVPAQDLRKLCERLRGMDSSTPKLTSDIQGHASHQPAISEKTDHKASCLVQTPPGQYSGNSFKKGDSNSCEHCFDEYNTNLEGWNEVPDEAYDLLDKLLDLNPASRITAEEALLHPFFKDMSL
Sequence of CDC7/DBF4 (Cell division cycle 7-related protein kinase/Activator of S phase kinase) (Homo sapiens) (Q9UBU7 whole entry, looked up): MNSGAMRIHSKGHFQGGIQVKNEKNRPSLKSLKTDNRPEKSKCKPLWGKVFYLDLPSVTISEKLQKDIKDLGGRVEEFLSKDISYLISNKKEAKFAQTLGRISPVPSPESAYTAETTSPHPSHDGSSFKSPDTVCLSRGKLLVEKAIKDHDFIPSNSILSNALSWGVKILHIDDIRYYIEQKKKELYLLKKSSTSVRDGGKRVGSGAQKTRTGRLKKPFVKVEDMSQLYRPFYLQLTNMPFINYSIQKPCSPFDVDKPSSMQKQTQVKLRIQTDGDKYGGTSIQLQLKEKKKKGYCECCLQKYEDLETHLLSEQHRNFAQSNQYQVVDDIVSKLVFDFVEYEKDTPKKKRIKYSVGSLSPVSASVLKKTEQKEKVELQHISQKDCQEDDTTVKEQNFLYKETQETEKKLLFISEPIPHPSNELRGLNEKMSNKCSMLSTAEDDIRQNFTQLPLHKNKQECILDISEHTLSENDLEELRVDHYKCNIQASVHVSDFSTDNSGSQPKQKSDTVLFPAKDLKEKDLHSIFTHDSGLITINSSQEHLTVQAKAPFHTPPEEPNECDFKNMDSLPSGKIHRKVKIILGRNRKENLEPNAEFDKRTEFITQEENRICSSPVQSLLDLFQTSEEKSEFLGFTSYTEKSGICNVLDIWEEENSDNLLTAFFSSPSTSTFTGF
Sequence of Glycogen synthase kinase-3 beta (Homo sapiens) (P49841 whole entry, looked up): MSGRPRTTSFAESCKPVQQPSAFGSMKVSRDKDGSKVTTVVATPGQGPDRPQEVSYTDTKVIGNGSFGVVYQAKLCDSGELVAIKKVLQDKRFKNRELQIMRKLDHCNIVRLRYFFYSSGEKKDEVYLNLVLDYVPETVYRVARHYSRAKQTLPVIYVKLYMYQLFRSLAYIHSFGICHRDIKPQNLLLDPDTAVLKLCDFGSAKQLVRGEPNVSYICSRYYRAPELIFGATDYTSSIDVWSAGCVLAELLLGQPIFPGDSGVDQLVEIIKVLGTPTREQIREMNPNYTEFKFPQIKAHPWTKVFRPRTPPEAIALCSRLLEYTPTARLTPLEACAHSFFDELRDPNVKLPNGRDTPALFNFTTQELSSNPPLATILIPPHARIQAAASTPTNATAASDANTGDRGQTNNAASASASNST
Sequence of Tyrosine-protein kinase Lck (Homo sapiens) (P06239 2-509 limits assumed): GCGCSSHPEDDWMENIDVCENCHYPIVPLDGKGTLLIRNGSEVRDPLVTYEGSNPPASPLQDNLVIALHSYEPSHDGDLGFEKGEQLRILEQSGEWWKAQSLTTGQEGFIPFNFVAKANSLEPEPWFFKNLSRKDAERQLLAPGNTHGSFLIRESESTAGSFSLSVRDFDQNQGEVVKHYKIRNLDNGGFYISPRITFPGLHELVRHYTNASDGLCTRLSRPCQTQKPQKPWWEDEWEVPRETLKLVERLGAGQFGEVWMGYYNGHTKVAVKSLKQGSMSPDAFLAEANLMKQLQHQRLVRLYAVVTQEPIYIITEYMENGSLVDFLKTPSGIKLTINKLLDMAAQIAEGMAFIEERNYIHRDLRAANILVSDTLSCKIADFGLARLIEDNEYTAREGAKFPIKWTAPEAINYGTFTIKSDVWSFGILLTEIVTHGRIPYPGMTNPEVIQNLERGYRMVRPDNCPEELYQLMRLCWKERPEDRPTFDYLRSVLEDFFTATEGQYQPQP
Sequence of Mitogen-activated protein kinase 3 (Homo sapiens) (P27361 whole entry): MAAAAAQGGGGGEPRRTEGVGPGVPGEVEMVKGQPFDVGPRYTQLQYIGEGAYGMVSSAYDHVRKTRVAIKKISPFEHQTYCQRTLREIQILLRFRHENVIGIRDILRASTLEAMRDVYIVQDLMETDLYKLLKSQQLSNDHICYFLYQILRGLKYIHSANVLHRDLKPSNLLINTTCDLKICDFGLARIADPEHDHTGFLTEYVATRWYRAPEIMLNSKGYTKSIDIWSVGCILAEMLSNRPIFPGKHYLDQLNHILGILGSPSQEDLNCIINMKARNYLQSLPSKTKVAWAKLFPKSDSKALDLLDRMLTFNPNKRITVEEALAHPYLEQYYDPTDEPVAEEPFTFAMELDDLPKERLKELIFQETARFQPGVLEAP
Sequence of Serine/threonine-protein kinase MARK2 (Homo sapiens) (Q7KZI7 whole entry): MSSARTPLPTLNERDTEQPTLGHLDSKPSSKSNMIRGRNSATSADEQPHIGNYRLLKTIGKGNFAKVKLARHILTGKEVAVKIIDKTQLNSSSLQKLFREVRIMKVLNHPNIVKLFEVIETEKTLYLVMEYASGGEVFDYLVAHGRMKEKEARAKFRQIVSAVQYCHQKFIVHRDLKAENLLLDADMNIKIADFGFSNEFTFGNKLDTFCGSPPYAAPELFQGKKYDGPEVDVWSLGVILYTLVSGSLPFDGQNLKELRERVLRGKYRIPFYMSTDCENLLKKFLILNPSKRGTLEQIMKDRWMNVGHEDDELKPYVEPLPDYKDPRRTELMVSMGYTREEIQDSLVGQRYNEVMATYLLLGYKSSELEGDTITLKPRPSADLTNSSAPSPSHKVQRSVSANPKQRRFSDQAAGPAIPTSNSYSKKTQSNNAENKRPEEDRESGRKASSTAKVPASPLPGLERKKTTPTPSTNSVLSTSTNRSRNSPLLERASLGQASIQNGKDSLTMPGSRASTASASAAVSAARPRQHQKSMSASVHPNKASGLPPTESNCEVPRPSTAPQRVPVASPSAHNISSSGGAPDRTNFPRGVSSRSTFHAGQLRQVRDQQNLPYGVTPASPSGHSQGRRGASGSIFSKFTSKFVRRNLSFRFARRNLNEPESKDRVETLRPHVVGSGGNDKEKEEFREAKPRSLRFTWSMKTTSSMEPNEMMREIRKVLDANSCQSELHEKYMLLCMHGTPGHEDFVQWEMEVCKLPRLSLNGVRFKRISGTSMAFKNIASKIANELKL
Sequence of CDC7/DBF4 (Cell division cycle 7-related protein kinase/Activator of S phase kinase) (Q9UBU7 whole entry): as the sequence (Q9UBU7 whole entry, looked up) above
Sequence of CDC7/DBF4 (Cell division cycle 7-related protein kinase/Activator of S phase kinase) (O00311 whole entry): as the sequence (O00311 whole entry, looked up) above

inhibition [1]	IC50 [2] [nM]	inhibition [3]	inhibition [4]	inhibition [5]	inhibition [6]	inhibition [7]	inhibition [8]	SMILES	Activity [9]	inhibition [10]	Activity [11]	Activity [12]	Activity [13]	Activity [14]
Active	200	inactive	inactive	inactive	inactive	inactive	Active	c1ccc(CSc2ncnc3[nH]cnc23)cc1	–	–	–	–	–	–
Active	140	inactive	inactive	inactive	inactive	inactive	–	Clc1cccc(CSc2ncnc3[nH]cnc23)c1	Active	inactive	–	–	–	–

SMILES	inhibition [1]	IC50 [2] [nM]	inhibition [3]	inhibition [4]	inhibition [5]	inhibition [6]	inhibition [7]	inhibition [8]	Activity [9]	inhibition [10]	Activity [11]	Activity [12]	Activity [13]	Activity [14]
Brc1ccccc1CSc1ncnc2[nH]cnc12	Active	270	inactive	inactive	inactive	inactive	inactive	–	–	inactive	Active	Active	Active	Non-Toxic
